Here are results for 10 molecules from patent publication US20240148701A1, “WOULD HEALING METHODS” (The University of Sydney, priority 2021, published 2024).

Entries after “also recorded” stand apart in the source; their conditions may differ.

Data set [1] deals with HUVECs. Description: Tubule formation in HUVECs on reduced growth factor extracellular matrix. The conditions noted are these: L-NAME 300 μmol/L with CL 316,243. Format: cell-based, human. The protocol: (§1) Human umbilical vein endothelial cells (HUVECs; Lonza C2519AS, pooled source, Australia) were grown using standard cell culture conditions in endothelial cell growth medium (EGM Plus®, containing 2% fetal bovine serum, Lonza, Australia). All cells were regularly confirmed to be mycoplasma negative. Two different pooled source cell lines were used in experiments and all were used within passages 2-4. Human adult dermal microvascular endothelial cells were also obtained from Lonza (CC-2543, Lonza Australia) and cultured as above but using endothelial growth medium 2-MV bulletkit. Endothelial colony forming cells (ECFCs) were derived from the peripheral blood of participants in the BioHEART study. This registered study (ACTRN12618001322224) complies with the Declaration of Helsinki and the study protocol and design has been approved by the Northern Sydney Local Health District Human Research Ethics Committee (HREC/17/HAWKE/343). […]
(§2) Once they were ˜70% confluent, cells were re-suspended in diluted EGM Plus® (1:3) and plated on reduced-growth factor extracellular matrix (15 mg/ml, Cultrex, Trevigen, USA) at a density of 1.5×10^4 cells/cm^2. […] Cells were incubated in an EVOS FL Auto Imaging system for 16 hours and tubule formation recorded every hour. Optimal tube formation occurred at the 8-hour timepoint; tubule number at this point was quantified manually using NIH Image J software. […]

For data set [2], the system named is HUVECs. Description: Cell migration by scratch assay in HUVECs (CL 316,243). Format: cell-based, human. The conditions noted are these: L-NAME 300 μmol/L with CL 316,243.
The target of another data set is β3-AR (Homo sapiens, UniProt P13945). The conditions noted are these: cited from earlier work; for agonist activity at β3-AR: β1- and β2-AR antagonists; for affinity and potency at β3-AR: selective agonists.
β3-AR, sequence (P13945 whole entry): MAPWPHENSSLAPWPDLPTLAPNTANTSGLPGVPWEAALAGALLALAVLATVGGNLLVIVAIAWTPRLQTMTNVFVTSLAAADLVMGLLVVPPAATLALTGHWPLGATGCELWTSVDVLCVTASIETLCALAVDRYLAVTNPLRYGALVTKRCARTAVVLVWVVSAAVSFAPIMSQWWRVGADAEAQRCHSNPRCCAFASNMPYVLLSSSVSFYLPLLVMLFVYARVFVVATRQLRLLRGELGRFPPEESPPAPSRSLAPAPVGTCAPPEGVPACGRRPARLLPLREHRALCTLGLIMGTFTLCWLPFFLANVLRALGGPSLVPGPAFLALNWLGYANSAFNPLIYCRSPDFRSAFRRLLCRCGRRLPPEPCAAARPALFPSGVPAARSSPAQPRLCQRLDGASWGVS
The next data set has as its system C57BL6 mice. The data set can be described thus: Splinted wound healing model in STZ-diabetic male mice. In kind it is in vivo, mouse. As for the experimental part:
8-week-old C57BL6 mice were purchased from Animal Resources Centre (Murdoch, WA) and acclimatised to the Kearns Facility over a 1-week period. Mice were group housed (5/cage) within a Physical Containment Level 2 laboratory and were allowed food and water ad libitum. After acclimatisation, 60 mice were weighed daily and given five consecutive daily intraperitoneal injections of Streptozotocin (STZ) solution (55 mg/kg/day) dissolved in sodium citrate (0.1 M) using a standard insulin needle (30 gauge). After the final injection, mice were weighed and blood glucose level (BGL) measured weekly by pricking the most distal point on the tail with a needle to obtain a blood drop, used with an AccuCheck BGL monitor. Mice became become diabetic over 4 weeks post-STZ, as confirmed with a consistent BGL of 15 mmol/L and if greater than 10% weight loss was observed, insulin was delivered via intraperitoneal injection (1 IU in saline). 4 mice were excluded due to severe weight loss during diabetes induction that exceeded ethical protocols. […] Wounds were measured daily for 12 days by removing opsite covering and using digital callipers to measure wound diameter across 3 axes which were averaged and used to calculate circular wound area. […] As such, wound data from 2 mice in topical group were not recorded following day 8 due to splint detachment. […]

For data set [3], the system named is HUVECs. Description: Scratch migration assay in HUVECs with Mirabegron. In kind it is cell-based, human. The note with it: 0.85-850 nM, over 15 hours, between concentrations. As for the experimental part: (§3) For assessing the effect of Mirabegron on cell migration: Human umbilical vein endothelial cells (HUVECs; Lonza, C2519AS) were cultured in Endothelial Cell Growth Media containing 2% fetal bovine serum (EGM2) (Lonza, CC-3162) at standard conditions of 37° C. and 5% C02 (SC). Human dermal microvascular diabetic and non-diabetic endothelial cells (db-HMVECs and HMVECs: Lonza, CC2930 and CC2543 respectively) were cultured in Microvascular Endothelial Growth Media containing 2% fetal bovine serum (FBS) (EGM-2MV) (Lonza, CC-3202) at ST. Cells were between passage 4 and 7 when used.
To first investigate whether the role that β3AR activation plays in endothelial cell migration was dose dependant, the inventors measured migration of HUVECs in media with multiple concentrations of Mirabegron (0.85, 8.5, 85 & 850 nM) using a scratch migration assay.

A short description of data set [4]: Topical lipogel on explanted skin, DESI-Mass spec detection. The note with it: lipogel applied to freshly explanted skin for 5.5 hrs. In kind it is in vitro ADME, mouse. An excerpt: A lipogel comprising the β3AR agonist Mirabegron was applied to freshly explanted skin for 5.5 hrs. Skin was then snap frozen in liquid nitrogen and cryosectioned at 40 μum thickness.
DESI-Mass spec was then used to scan the tissue at 30 μm resolution. Tissue image was constructed using mass signal 284 which was presented in high quantity throughout the tissue. Mirabegron was detected using mass signal 397 and overlayed onto the tissue image. The same slide used for DESI-Mass spec was subsequently stained with H&E.

The next data set relates to diabetic HMVECs. Description: Scratch migration assay in diabetic HMVECs with Mirabegron. Format: cell-based, human. The conditions noted are these: 85 nM, 4.5 hours, vs control. As for the experimental part:
as §3
To investigate the potential for Mirabegron to improve migration by reversing oxidative stress, diabetic and non-diabetic HMVECs were used in a scratch migration assay. 85 nM of Mirabegron was used with a control on both cell types.

Data set [5] deals with human adult dermal microvascular endothelial cells (MVEC). The data set can be described thus: Tubule formation in human adult dermal microvascular endothelial cells. In kind it is cell-based. The conditions noted are these: β3AR antagonist 1 μmol/L with CL 316,243 100 ng/ml. The protocol: as §1, §2

Consider `COC(=O)[C@@H](N)CCCNC(=N)N[N+](=O)[O-]` [L-NAME, Nω-nitro-L-arginine methyl ester], for which the “effect on β3AR-stimulated tubule formation in HUVECs” value with HUVECs [1] was “abolished”. For the same molecule, the “effect on β3AR-stimulated cell migration rate in HUVECs” value in the data set on HUVECs [2] is listed as “abolished”. As to `CC(C)(C)NCC(O)COc1cccc2[nH]c(=O)[nH]c12` (stereo not shown) [CGP12177A], the “agonist activity at β3-AR” value on β3-AR is “partial agonist activity”. `Cc1cc(OCC(=O)O)c(C)cc1CCN[C@@H](C)[C@H](O)c1ccc(O)cc1` [ritobegron]: the “affinity and potency at β3-AR” value at β3-AR was “high affinity and potency”. Regarding `CC(C)(Cc1c[nH]c2ccccc12)NCC(O)COc1ccccc1C#N` (stereo not shown) [bucindolol], on β3-AR, the “agonist activity at β3-AR” value is listed as “partial agonist activity”. For `O=C(O)c1cccc(-c2cccc(NCCNC[C@H](O)c3cccc(Cl)c3)c2)c1` [solabegron], the “affinity and potency at β3-AR” value on β3-AR was “high affinity and potency”.

In the case of `CC(C)(C)NCC(O)COc1cccc2c1CC(O)C(O)C2` (stereo not shown) [nadolol], on β3-AR (β-AR antagonists), the “affinity at β3-AR” value is given as “atypically low affinity”. Turning to `CC(C)NCC(O)COc1cccc2[nH]ccc12` (stereo not shown) [pindolol], the “agonist activity at β3-AR” value at β3-AR is listed as “partial agonist activity”.

Turning to `Nc1nc(CC(=O)Nc2ccc(CCNC[C@H](O)c3ccccc3)cc2)cs1` [Mirabegron, 2-(2-Amino-1,3-thiazol-4-yl)-N-[4-(2-{[(2R)-2-hydroxy-2-phenylethyl]amino}ethyl)phenyl]acetamide], the “wound healing (wound closure over time)” value in the data set on C57BL6 mice (topical lipogel daily, 12 days, vs vehicle lipogel, p=0.009) is reported as “Significant improvement”. Also, in the data set on C57BL6 mice (topical, day 2, n=14, p=0.0238), the “wound healing at day 2” value is on record as “significant improvement”. The “affinity and potency at β3-AR” value on β3-AR was “high affinity and potency”. Moreover, in the data set on HUVECs [3], the “migration of HUVECs” value is reported as “No significant difference; also recorded: no impact”. Besides, the “absorption into skin tissue (DESI-Mass spec signal 397)” value in data set [4] is on record as “detected in the tissue; also recorded: deliver through to the dermis”. The “migration of diabetic HMVECs” value in the data set on diabetic HMVECs is given as “improved the migration; also recorded: seemed to improve the migration; also recorded: improves migration”. Consider `CCc1ccccc1OC[C@@H](O)CN[C@H]1CCCc2ccccc21.O=C(O)C(=O)O` [SR 592230A], for which the “effect on CL 316,243-induced tubule formation” value in data set [5] is “abolished”. As to `O=C(Nc1ccc(C[C@@H]2CC[C@H]([C@H](O)c3ccccc3)N2)cc1)[C@@H]1CCc2nccc(=O)n21` [vibegron], on β3-AR, the “affinity and potency at β3-AR” value was “high affinity and potency”.
